Paper PMC10424185, “C-2 Thiophenyl Tryptophan Trimers Inhibit Cellular Entry of SARS-CoV-2 through Interaction with the Viral Spike (S) Protein” (Journal of Medicinal Chemistry, 2023)
Entries after “also recorded” stand apart in the source; their conditions may differ. Where two headings read alike, the source gives them in different places.

Legend:
[1] = tested on: VSV-S (pseudotyped VSV carrying the S protein of Wuhan-Hu-1 SARS-CoV-2); assay: microbe, parasite or virus in culture; assay type: cell-based
[2] = tested on: VSV-S (pseudotyped VSV carrying the S protein of Wuhan-Hu-1 SARS-CoV-2); assay: microbe, parasite or virus in culture; assay type: cell-based; conditions: Vesicular stomatitis virus, read-out: IC50 (concentration at which virus infection is reduced by 50%), VSV-S in A549-ACE2-TMPRSS2 cells
VSV-SWuhan-Hu-1 = assay: microbe, parasite or virus in culture; assay type: cell-based, SARS-CoV-2; conditions: Vesicular stomatitis virus, VeroE6/TMPRSS2, read-out: IC50 ± SD, pseudotyped VSV carrying S of Wuhan-Hu-1
[3] = tested on: VSV-SOmicron (S protein of SARS-CoV-2 Omicron BA.1); assay: organism not typed; assay type: cell-based; conditions: read-out: IC50 ± SD, pseudotyped VSV carrying S of Omicron BA.1
SARS-CoV-2 RBD [4] = target: T1, SARS-CoV-2 RBD (Severe acute respiratory syndrome coronavirus 2, UniProt P0DTC2); assay type: binding
[5] = target: binding of human ACE2 catalytic domain to RBD (Severe acute respiratory syndrome coronavirus 2, UniProt P0DTC2); parameters: species or system SARS-CoV-2 / human
[6] = tested on: VSV-G (VSV pseudotyped with its native glycoprotein); assay type: cell-based, vesicular stomatitis virus
in vitro [7] = conditions: African green monkey
in vitro [8] = conditions: human
SARS-CoV-2 RBD [9] = target: T1, SARS-CoV-2 RBD; assay: biochemical; assay type: binding
[10] = Vesicular stomatitis virus, Vero C1008, read-out: IC50 (concentration at which virus infection is reduced by 50%), VSV-S in Vero E6 cells

In the case of NCC(=O)NC(CCC(=O)NC(Cc1c(Sc2ccc([N+](=O)[O-])cc2)[nH]c2ccccc12)C(=O)O)(CCC(=O)NC(Cc1c(Sc2ccc([N+](=O)[O-])cc2)[nH]c2ccccc12)C(=O)O)CCC(=O)NC(Cc1c(Sc2ccc([N+](=O)[O-])cc2)[nH]c2ccccc12)C(=O)O (centres unmarked) [Compound 2], the “infection (viral GFP reporter) when compound added one-hour post virus addition” value [1] is reported as “no decrease in infection”, the “infection (viral GFP reporter) when compound added together with the virus” value [1] is reported as “strong reduction in infection” and the “primary HTS screening result (in words)” value [1] is reported as “significant antiviral activity in the absence of cytotoxicity”. The IC50 [1, 10] was 0.64 ± 0.47 µM, the IC50 ([1]; Vesicular stomatitis virus, Vero C1008, read-out: IC50, compound preincubated with the cells) was 0.32 µM and the IC50 ([1]; Vesicular stomatitis virus, Vero C1008, read-out: IC50, compound preincubated with the virus) was 0.48 µM. It also gave an IC50 ([1]; read-out: IC50 (concentration at which virus infection is reduced by 50%), VSV-S in Vero E6 cells) of 0.6 ± 0.5 µM, an IC50 [2] of 1 ± 0.4 µM and an IC50 (VSV-SWuhan-Hu-1) of 0.08 ± 0.07 µM. The IC50 [3] was 21.7 ± 0.83 µM, the “effect on thermofluor fluorescence profile / thermal stability of RBD (in words)” value (SARS-CoV-2 RBD [4]) was “shift of the curve toward lower temperatures” and the “increase of ACE2 concentrations needed for binding to the RBD” value [5] was roughly 10 fold. The “antiviral activity against VSV-G” value [6] was “no antiviral activity”, the CC50 (in vitro [7]) was greater than 100 µM and the CC50 (in vitro [8]) was greater than 100 µM.

With CS(=O)(=O)c1ccc(Sc2[nH]c3ccccc3c2CC(NC(=O)CCC(CCC(=O)NC(Cc2c(Sc3ccc(S(C)(=O)=O)cc3)[nH]c3ccccc23)C(=O)O)(CCC(=O)NC(Cc2c(Sc3ccc(S(C)(=O)=O)cc3)[nH]c3ccccc23)C(=O)O)NC(=O)CN)C(=O)O)cc1 (centres unmarked) [Compound 42] the “antiviral activity in the VSV-S assay (in words)” value [1] was “no antiviral activity”, the IC50 [1, 10] was greater than 50 µM and the “effect on thermofluor fluorescence profile / thermal stability of RBD (in words)” value (SARS-CoV-2 RBD [4]) was “did not cause any change in the curve; also recorded: no effect on the thermal stability of the RBD”. It also gave a Kd (SARS-CoV-2 RBD [9]) of no less than 2500 µM and a CC50 (in vitro [7]) greater than 100 µM.
